Experimental data from PMC12027554, “Inhibition of ABCG2 by SCO-101 Enhances Chemotherapy Efficacy in Cancer” (International Journal of Molecular Sciences, 2025).
Read-outs that look alike come from different tables or passages of the source.

How the values were obtained:
HT29SN-38 cells [1] = test: Colony formation assay; type: cell-based, human; settings: 7 days
Experimental: Cells were trypsinized and counted, and 400 cells/well were seeded in 24-well plates. Drug treatments were performed 24 h after seeding for a total duration of 6 (LoVo) or 7 (HT29) days. Next, media were removed, and cells were washed with PBS and stained with 250 μL Crystal Violet solution for 10 min. Crystal Violet was then removed, plates rinsed with tap water, images captured, and colonies counted using the ImageJ software (version 1.54p). Survival fraction and plating efficiency (PE) were calculated as follows: Survival Fraction=number of colonies/number of cells plated ∗ PE PE=number of colonies formed in control/number of cells seeded

human UGT1A1 enzyme = molecular target: T1, human UGT1A1 enzyme (Homo sapiens, UniProt P22309); test: Inhibition of UGT1A1 glucuronidation activity (recombinant enzyme); type: biochemical; settings: SCO-101 0.003–1 µM
T1 sequence (P22309 26-533): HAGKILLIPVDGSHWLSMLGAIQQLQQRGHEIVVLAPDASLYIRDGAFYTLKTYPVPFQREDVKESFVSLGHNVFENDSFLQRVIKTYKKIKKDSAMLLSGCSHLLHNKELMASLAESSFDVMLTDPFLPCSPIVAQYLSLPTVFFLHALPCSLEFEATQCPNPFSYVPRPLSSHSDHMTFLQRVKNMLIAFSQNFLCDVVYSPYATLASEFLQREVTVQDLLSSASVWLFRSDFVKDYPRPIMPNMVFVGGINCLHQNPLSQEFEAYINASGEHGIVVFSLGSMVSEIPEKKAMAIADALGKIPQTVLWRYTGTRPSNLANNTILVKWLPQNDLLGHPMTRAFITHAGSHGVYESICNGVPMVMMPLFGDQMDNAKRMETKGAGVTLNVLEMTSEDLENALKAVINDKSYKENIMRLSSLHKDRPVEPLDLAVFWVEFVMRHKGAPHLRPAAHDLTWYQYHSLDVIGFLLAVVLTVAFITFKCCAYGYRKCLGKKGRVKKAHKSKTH
Experimental: The inhibition potency of SCO-101 towards the human UGT1A1 enzyme was studied using recombinant human enzymes and the two different probe substrates β-estradiol (10 μM) and SN-38 (10 μM). Additionally, a positive control inhibitor at a single concentration (10 μM ketoconazole) and a solvent control were employed. Reactions were conducted at 37 °C after a 10 min pre-incubation at 37 °C in incubation buffer (10 mM Tris-HCl, pH 7.4, 5 mM MgCl2, […] alamethicin) and started by adding 5 mM UDPGA. Reactions were terminated after 30 min by adding an equal volume of ice-cold acetonitrile with 1% formic acid and 0.5 μM caffeine. The level of the UGT-specific probe glucuronidation was monitored by LC/MS-MS, and inhibition was observed as a reduced level of metabolite formation of the substrate.

HT29SN-38 cells [2] = test: Cell viability assay (MTT / CCK-8), SN-38-resistant HT29; type: cell-based, human
Experimental: (§1) Cells were seeded at a density of 0.2–1 × 10^4 cells/well into 96-well plates. One day after seeding, treatments were performed in triplicate for 72 h, or as otherwise indicated in the relevant panel/figure legend and kept at 37 °C/5% CO2. Growth medium alone (“untreated” cells) or DMSO was used as a control.
(§2) For MTT assays, media were replaced at the final timepoint with 100 μL of 1:10 MTT reagent (0.5 mg/mL in PBS) diluted in growth medium, and plates were incubated for 3 h. A total of 100 μL/well of stop buffer (50 g Sodium Dodecyl Sulfate, 245 mL ddH2O, 5 mL 1N HCl) was added and plates incubated for 24 h to let colored formazan crystals develop. Optical densities (ODs) were measured with a PowerWave^TM Microplate spectrophotometer (BioTek, Winooski, VT, USA) at 570 nm and 670 nm (background).
For CCK-8 assays, 100 μL of 1:10 CCK-8 reagent (pevonedistat-treated HT29 cells) diluted in medium was added to each well and cells incubated for 1–2 h at 37 °C. OD values were measured at 450 nm with a VersaMax microplate spectrophotometer (Molecular Devices, San Jose, CA, USA).
Background values were subtracted prior to further analysis. The percentage of cell viability was expressed as relative values versus untreated cells as determined by the various assays. EC50/IC50 values were calculated using GraphPad Prism (v10.4.1) and the in-built non-linear regression [log (inhibitor) vs. response—variable slope (four parameters)] calculation. For determination of synergy scores, the online tool SynergyFinder+ (https://synergyfinder.org access date 15 February 2025) was employed following 4 × 4- or 6 × 6-matrix dose-escalation cell viability experiments. Doses of drugs are indicated in the relevant figure legends and ranges have been chosen based on the response of cells to single-drug dose-dependent experiments. Synergy scores were calculated using the ZIP model, which takes the advantages of both the Loewe additivity and the Bliss independence models, aiming at a systematic assessment of various types of drug interaction patterns that may arise in a high-throughput drug combination screening.

PANC-1MX100 cells = test: Cell viability assay, mitoxantrone-resistant PANC-1; type: cell-based, human; settings: SCO-101 20 µM, 72 h
Experimental: as §1, §2
Background values were subtracted prior to further analysis. The percentage of cell viability was expressed as relative values versus untreated cells as determined by the various assays. EC50/IC50 values were calculated using GraphPad Prism (v10.4.1) and the in-built non-linear regression [log (inhibitor) vs. response—variable slope (four parameters)] calculation. For determination of synergy scores, the online tool SynergyFinder+ (https://synergyfinder.org access date 15 February 2025) was employed following 4 × 4- or 6 × 6-matrix dose-escalation cell viability experiments. […]

SNU-5 cells = test: Cell viability assay (CellTiter-Glo), SNU-5; type: cell-based; settings: Homo sapiens, 96 h
Experimental: as §1
For SCH, SNU-5, and MKN45 cells, 50 μL of CellTiter-Glo® Reagent (Promega; Madison, WI, USA) was added to each well at the end of the treatments. The content was mixed for 5 min to facilitate cell lysis and plates incubated at room temperature for 10 min to stabilize luminescent signals, which were then recorded using an EnVision Multi Label Reader (PerkinElmer; Waltham, MA, USA).
Background values were subtracted prior to further analysis. The percentage of cell viability was expressed as relative values versus untreated cells as determined by the various assays. EC50/IC50 values were calculated using GraphPad Prism (v10.4.1) and the in-built non-linear regression [log (inhibitor) vs. response—variable slope (four parameters)] calculation. […] Synergy scores were calculated using the ZIP model, which takes the advantages of both the Loewe additivity and the Bliss independence models, aiming at a systematic assessment of various types of drug interaction patterns that may arise in a high-throughput drug combination screening.

HT29SN-38 cells [3] = test: Cellular dye efflux assay (Hoechst 33342), resistant cells; type: cell-based, human; settings: SCO-101 20 µM, Ko-143 1 µM, PSC833 1 µM
Experimental: Twenty-four hours before the experiments, cells were seeded into 96-well Nunclon^TM plates at a density of 6000 (HT29), 7000 (PANC-1) or 8000 (LoVo) cells/well. The following day, cells were treated in triplicate with the relevant drugs at the indicated concentrations for 1 h. Next, 5 μg/mL Hoechst 33342 was added to the wells, and plates incubated at 37 °C for 30 min^−1 h. Cells were washed with cold PBS, treatments re-added and plates re-incubated at 37 °C for 30 min to 1 h. Plates were analyzed using a Celigo® (Nexcelom Bioscience, Lawrence, MA, USA) imaging cytometer. Data are expressed as percentages of fluorescence intensity, calculated through the following formula: % fluorescence intensity=Mean fluorescence intensity of sample/Mean fluorescence intensity of parental control×100
Fluorescent images were captured with an Olympus® IX71/TH4-200 microscope equipped with an Olympus® DP72 camera (Shinjuku, Tokyo, Japan), and cells were seeded at a 1.5 × 10^5 cells/well density and treated as described above.

IC50 (human UGT1A1 enzyme; substrate SN-38 10 μM, read-out: IC50, UGT1A1 glucuronidation of SN-38): 100 nM | IC50 (human UGT1A1 enzyme; substrate β-estradiol 10 μM, read-out: IC50, UGT1A1 glucuronidation of β-estradiol): 280 nM | IC50 (HT29SN-38 cells [2]; Homo sapiens, HT-29, 72 h): > 25000 nM | IC50 (SNU-5 cells): > 50000 nM
Compound: O=C(Nc1cc(C(F)(F)F)cc(C(F)(F)F)c1)Nc1ccc(Br)cc1-c1nnn[nH]1 [SCO-101, N-[4-Bromo-2-(1H-1,2,3,4-tetrazol-5-yl)phenyl]-N′-[3,5-bis(trifluoromethyl)phenyl]urea]
colony formation ability (survival fraction) (HT29SN-38 cells [1]; 10 µM SCO-101 alone): did not affect | colony formation ability, SCO-101 in combination with SN-38 (HT29SN-38 cells [1]; SCO-101 0–20 µM + SN-38 0.01 μM, vs SCO-101 alone): significant reduction | cell viability, SCO-101 in combination with SN-38 (HT29SN-38 cells [2]; SCO-101 0–50 µM + SN-38 0.08 μM): re-sensitization | cell viability after 24 h combination treatment and drug washout (HT29SN-38 cells [2]; SCO-101 15 μM + SN-38 0.5 μM, washout 48 h or 120 h): significant cytotoxic effect | cell viability after 24 h single treatment and drug washout (HT29SN-38 cells [2]; SCO-101 15 μM or SN-38 0.5 μM alone, washout 48 h or 120 h): did not affect cell viability | cell viability, SCO-101 combined with mitoxantrone or SN-38 (PANC-1MX100 cells): re-sensitized | H33342 dye accumulation (HT29SN-38 cells [3]): restored
